Test results from US8697739B2, “Bicyclic acetyl-CoA carboxylase inhibitors and uses thereof” (Novartis AG, priority 2010, dated 2014).

Biological target: T1, human acetyl-CoA carboxylase 2 (ACC2) (Homo sapiens, UniProt O00763)
T1 construct: The cDNA encoding amino acids 144 to 2458 of human acetyl-CoA carboxylase 2; made in house; host or cells: Sf9 insect cells (baculovirus, pFastBac1)
Test: Acetyl-CoA carboxylase enzyme assay (malonyl-CoA formation by LC/MS/MS)
Format: biochemical
Details: recombinant human ACC2 (aa 144-2458); read-out: IC50 ACC2
Method in brief: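 Malonyl-CoA formation was read by LC/MS/MS MRM against a [13C3]-malonyl-CoA internal standard, after acetic acid quench. The enzyme was baculovirus/Sf9-expressed human ACC2 residues 144–2458, given 15 minutes room-temperature compound preincubation in HEPES pH 7.5 buffer with MgCl2, citrate and DTT. Substrate solution held 50 μM acetyl-CoA, 120 μM ATP and 2 mM KHCO3.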

T1 sequence (O00763 144-2458): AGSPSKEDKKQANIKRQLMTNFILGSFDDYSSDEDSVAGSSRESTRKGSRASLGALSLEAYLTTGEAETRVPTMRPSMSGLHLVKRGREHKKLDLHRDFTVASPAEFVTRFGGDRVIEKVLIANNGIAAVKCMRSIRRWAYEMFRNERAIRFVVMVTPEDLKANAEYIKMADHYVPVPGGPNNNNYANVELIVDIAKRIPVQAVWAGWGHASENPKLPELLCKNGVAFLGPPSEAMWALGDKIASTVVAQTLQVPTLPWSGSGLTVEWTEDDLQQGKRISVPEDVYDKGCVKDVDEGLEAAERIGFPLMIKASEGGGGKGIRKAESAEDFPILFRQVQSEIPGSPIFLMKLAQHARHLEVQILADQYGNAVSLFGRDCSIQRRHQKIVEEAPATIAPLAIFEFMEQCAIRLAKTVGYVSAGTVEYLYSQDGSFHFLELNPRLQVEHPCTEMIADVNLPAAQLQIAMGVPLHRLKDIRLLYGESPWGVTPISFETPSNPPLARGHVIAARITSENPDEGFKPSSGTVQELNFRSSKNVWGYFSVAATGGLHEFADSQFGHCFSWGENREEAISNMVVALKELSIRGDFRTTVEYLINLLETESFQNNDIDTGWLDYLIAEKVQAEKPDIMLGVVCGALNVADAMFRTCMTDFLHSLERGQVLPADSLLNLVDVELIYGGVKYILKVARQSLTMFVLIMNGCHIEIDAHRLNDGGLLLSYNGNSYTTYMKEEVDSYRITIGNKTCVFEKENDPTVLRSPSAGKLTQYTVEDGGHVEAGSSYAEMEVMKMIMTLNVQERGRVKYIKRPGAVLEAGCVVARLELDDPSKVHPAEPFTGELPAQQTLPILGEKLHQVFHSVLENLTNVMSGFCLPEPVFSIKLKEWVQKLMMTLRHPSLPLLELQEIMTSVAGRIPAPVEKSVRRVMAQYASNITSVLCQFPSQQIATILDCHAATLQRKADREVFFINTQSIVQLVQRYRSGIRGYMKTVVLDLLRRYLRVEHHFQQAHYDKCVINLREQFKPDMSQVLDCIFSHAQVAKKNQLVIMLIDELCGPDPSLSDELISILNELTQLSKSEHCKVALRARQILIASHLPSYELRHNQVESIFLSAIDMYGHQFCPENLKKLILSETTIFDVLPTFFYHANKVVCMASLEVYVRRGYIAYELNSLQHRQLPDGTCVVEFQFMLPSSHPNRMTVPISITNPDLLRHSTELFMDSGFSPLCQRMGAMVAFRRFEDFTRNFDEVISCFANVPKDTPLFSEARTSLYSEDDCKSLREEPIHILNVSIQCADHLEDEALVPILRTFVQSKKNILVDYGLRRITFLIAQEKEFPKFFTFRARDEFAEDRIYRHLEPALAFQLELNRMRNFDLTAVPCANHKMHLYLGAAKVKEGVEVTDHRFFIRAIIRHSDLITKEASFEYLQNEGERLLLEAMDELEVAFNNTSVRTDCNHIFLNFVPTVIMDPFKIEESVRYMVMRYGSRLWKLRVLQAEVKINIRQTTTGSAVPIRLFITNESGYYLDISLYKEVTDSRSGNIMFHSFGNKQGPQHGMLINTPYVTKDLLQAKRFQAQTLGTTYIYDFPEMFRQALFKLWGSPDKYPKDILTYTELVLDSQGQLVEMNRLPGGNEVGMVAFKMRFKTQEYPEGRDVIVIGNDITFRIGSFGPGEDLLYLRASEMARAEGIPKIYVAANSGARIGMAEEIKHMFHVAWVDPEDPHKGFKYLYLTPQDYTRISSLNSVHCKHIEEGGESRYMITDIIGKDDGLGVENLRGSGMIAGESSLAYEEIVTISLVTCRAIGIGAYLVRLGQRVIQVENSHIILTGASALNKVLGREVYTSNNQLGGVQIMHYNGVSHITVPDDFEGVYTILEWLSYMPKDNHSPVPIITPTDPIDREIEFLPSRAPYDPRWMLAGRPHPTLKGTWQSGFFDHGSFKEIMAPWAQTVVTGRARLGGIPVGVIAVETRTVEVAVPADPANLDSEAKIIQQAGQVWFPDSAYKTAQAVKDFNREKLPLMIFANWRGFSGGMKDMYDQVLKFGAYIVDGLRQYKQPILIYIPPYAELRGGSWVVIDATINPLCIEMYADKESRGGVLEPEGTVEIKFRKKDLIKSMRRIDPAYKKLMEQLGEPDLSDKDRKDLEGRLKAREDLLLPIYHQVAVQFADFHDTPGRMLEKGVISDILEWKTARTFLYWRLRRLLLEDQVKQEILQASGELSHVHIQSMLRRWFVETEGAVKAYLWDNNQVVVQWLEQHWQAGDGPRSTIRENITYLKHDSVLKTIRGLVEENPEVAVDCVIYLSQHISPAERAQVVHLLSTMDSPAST

An IC50 of 55 nM was found for C[C@H]1COCCN1C(=O)[C@H]1CC[C@H](NS(=O)(=O)c2ccc3c(Cl)c(C4CC4)n(C)c3c2)CC1 [Example 426, 3-chloro-2-cyclopropyl-1-methyl-N-((1S,4r)-4-((S)-3-methylmorpholine-4-carbonyl)cyclohexyl)-1H-indole-6-sulfonamide] in this work.

An IC50 of 15 nM was found for C[C@H]1COCCN1C(=O)[C@H]1CC[C@H](NS(=O)(=O)c2ccc3cc(-c4ccc(CCC(=O)O)cc4)n(C)c3c2)CC1 [Example 427, 3-(4-(1-methyl-6-(N-((1S,4r)-4-((S)-3-methylmorpholine-4-carbonyl)cyclohexyl)sulfamoyl)-1H-indol-2-yl)phenyl)propanoic acid] in this work.

An IC50 of under 10 nM was found for C[C@H]1COCCN1C(=O)[C@H]1CC[C@H](NS(=O)(=O)c2ccc3c(Cl)c(-c4ccc(CCC(=O)O)cc4)n(C)c3c2)CC1 [Example 428, 3-(4-(3-chloro-1-methyl-6-(N-((1S,4r)-4-((S)-3-methylmorpholine-4-carbonyl)cyclohexyl)sulfamoyl)-1H-indol-2-yl)phenyl)propanoic acid] in this work.

An IC50 of 75 nM was found for Cn1c(-c2ccc(CCC(=O)O)cc2)c(C#N)c2ccc(S(=O)(=O)N[C@H]3CC[C@H](C(=O)N4CCC[C@H]4C(C)(C)C)CC3)cc21 [Example 429, 3-(4-(6-(N-((1S,4r)-4-((S)-2-tert-butylpyrrolidine-1-carbonyl)cyclohexyl)sulfamoyl)-3-cyano-1-methyl-1H-indol-2-yl)phenyl)propanoic acid] in this work.

An IC50 of under 10 nM was found for Cn1c(-c2ccc(CCC(=O)O)cc2)c(C#N)c2ccc(S(=O)(=O)N[C@H]3CC[C@H](C(=O)N4CCC[C@@H]4C(C)(C)C)CC3)cc21 [Example 430, 3-(4-(6-(N-((1R,4r)-4-((R)-2-tert-butylpyrrolidine-1-carbonyl)cyclohexyl)sulfamoyl)-3-cyano-1-methyl-1H-indol-2-yl)phenyl)propanoic acid] in this work.

An IC50 of 95 nM was found for Cn1c(-c2ccccc2)cc2ccc(S(=O)(=O)N[C@H]3CC[C@H](C(=O)N4CCC[C@@H]4CO)CC3)cc21 [Example 432, N-((1R,4r)-4-((R)-2-(hydroxymethyl)pyrrolidine-1-carbonyl)cyclohexyl)-1-methyl-2-phenyl-1H-indole-6-sulfonamide] in this work.

An IC50 of 445 nM was found for Cn1c(-c2ccccc2)cc2ccc(S(=O)(=O)N[C@H]3CC[C@H](C(=O)N4CCC(O)C4)CC3)cc21 (stereo partly drawn) [Example 433, N-((1r,4r)-4-(3-hydroxypyrrolidine-1-carbonyl)cyclohexyl)-1-methyl-2-phenyl-1H-indole-6-sulfonamide] in this work.

An IC50 of 10 nM was found for CC(C)[C@H]1COCCN1C(=O)[C@H]1CC[C@H](NS(=O)(=O)c2ccc3cc(-c4ccccc4)n(C)c3c2)CC1 [Example 434, N-((1S,4r)-4-((S)-3-isopropylmorpholine-4-carbonyl)cyclohexyl)-1-methyl-2-phenyl-1H-indole-6-sulfonamide] in this work.

An IC50 of 20 nM was found for Cn1c(-c2ccccc2)cc2ccc(S(=O)(=O)NC3CCC(C(=O)NC4CCCCNC4=O)CC3)cc21 (stereo not drawn) [Example 435, (1r,4r)-4-(1-methyl-2-phenyl-1H-indole-6-sulfonamido)-N-(2-oxoazepan-3-yl)cyclohexanecarboxamide] in this work.

An IC50 of 20 nM was found for COCc1ccc(-c2cc3ccc(S(=O)(=O)N[C@H]4CC[C@H](C(=O)N5CCOC[C@@H]5C)CC4)cc3[nH]2)cc1 [Example 436, 2-(4-(methoxymethyl)phenyl)-N-((1S,4r)-4-((S)-3-methylmorpholine-4-carbonyl)cyclohexyl)-1H-indole-6-sulfonamide] in this work.

An IC50 of 40 nM was found for COCc1ccc(-c2cc3ccc(S(=O)(=O)N[C@H]4CC[C@H](C(=O)N5CCOC[C@@H]5C)CC4)cc3n2C)cc1 [Example 437, 2-(4-(methoxymethyl)phenyl)-1-methyl-N-((1S,4r)-4-((S)-3-methylmorpholine-4-carbonyl)cyclohexyl)-1H-indole-6-sulfonamide] in this work.

An IC50 of under 10 nM was found for COCc1ccc(-c2cc3ccc(S(=O)(=O)N[C@H]4CC[C@H](C(=O)N5CCOC[C@@H]5C(C)C)CC4)cc3n2C)cc1 [Example 438, N-((1S,4r)-4-((S)-3-isopropylmorpholine-4-carbonyl)cyclohexyl)-2-(4-(methoxymethyl)phenyl)-1-methyl-1H-indole-6-sulfonamide] in this work.

An IC50 of under 10 nM was found for Cn1c(-c2ccccc2)cc2ccc(S(=O)(=O)N[C@H]3CC[C@H](C(=O)N[C@@H](c4ccccc4)C(C)(C)CO)CC3)cc21 [Example 439, (1r,4S)-N-((S)-3-hydroxy-2,2-dimethyl-1-phenylpropyl)-4-(1-methyl-2-phenyl-1H-indole-6-sulfonamido)cyclohexanecarboxamide] in this work.

An IC50 of 20 nM was found for COc1ccc(-c2cc3ccc(S(=O)(=O)N[C@H]4CC[C@H](C(=O)N5CCOC[C@@H]5C)CC4)cc3n2C)cc1 [Example 440, 2-(4-methoxyphenyl)-1-methyl-N-((1S,4r)-4-((S)-3-methylmorpholine-4-carbonyl)cyclohexyl)-1H-indole-6-sulfonamide] in this work.

An IC50 of under 10 nM was found for COc1ccc(-c2cc3ccc(S(=O)(=O)N[C@H]4CC[C@H](C(=O)N5CCOC[C@@H]5C(C)C)CC4)cc3n2C)cc1 [Example 441, N-((1S,4r)-4-((S)-3-isopropylmorpholine-4-carbonyl)cyclohexyl)-2-(4-methoxyphenyl)-1-methyl-1H-indole-6-sulfonamide] in this work.

An IC50 of 40 nM was found for Cn1c(-c2ccccc2)cc2ccc(S(=O)(=O)N[C@H]3CC[C@H](C(=O)N4CCOC(C)(C)C4)CC3)cc21 [Example 442, N-((1r,4r)-4-(2,2-dimethylmorpholine-4-carbonyl)cyclohexyl)-1-methyl-2-phenyl-1H-indole-6-sulfonamide] in this work.

An IC50 of 30 nM was found for Cn1c(-c2ccccc2)cc2ccc(S(=O)(=O)N[C@H]3CC[C@H](C(=O)N4CCC[C@@H]4C(C)(C)O)CC3)cc21 [Example 443, N-((1R,4r)-4-((R)-2-(2-hydroxypropan-2-yl)pyrrolidine-1-carbonyl)cyclohexyl)-1-methyl-2-phenyl-1H-indole-6-sulfonamide] in this work.

An IC50 of 20 nM was found for COCCc1ccc(-c2cc3ccc(S(=O)(=O)N[C@H]4CC[C@H](C(=O)N5CCOC[C@@H]5C)CC4)cc3n2C)cc1 [Example 444, 2-(4-(2-methoxyethyl)phenyl)-1-methyl-N-((1S,4r)-4-((S)-3-methylmorpholine-4-carbonyl)cyclohexyl)-1H-indole-6-sulfonamide] in this work.

An IC50 of 15 nM was found for COc1ccc(-c2cc3ccc(S(=O)(=O)N[C@H]4CC[C@H](C(=O)N[C@@H](CO)C5CC5)CC4)cc3n2C)cc1 [Example 445, (1r,4R)-N-((R)-1-cyclopropyl-2-hydroxyethyl)-4-(2-(4-methoxyphenyl)-1-methyl-1H-indole-6-sulfonamido)cyclohexanecarboxamide] in this work.

An IC50 of 365 nM was found for Cn1c(C2CC2)cc2ccc(S(=O)(=O)N[C@H]3CC[C@H](C(=O)N[C@@H](CO)C4CC4)CC3)cc21 [Example 446, (1r,4R)-4-(2-cyclopropyl-1-methyl-1H-indole-6-sulfonamido)-N-((R)-1-cyclopropyl-2-hydroxyethyl)cyclohexanecarboxamide] in this work.

An IC50 of 25 nM was found for COCCOc1ccc(-c2cc3ccc(S(=O)(=O)N[C@H]4CC[C@H](C(=O)N5CCOC[C@@H]5C(C)C)CC4)cc3n2C)cc1 [Example 447, N-((1S,4r)-4-((S)-3-isopropylmorpholine-4-carbonyl)cyclohexyl)-2-(4-(2-methoxyethoxy)phenyl)-1-methyl-1H-indole-6-sulfonamide] in this work.
